According to US8586613B2, “Pyridinium and quinolinium derivatives” (Universidad de Granada, priority 2004, dated 2013):

Tests used:
[1] = system: MCF10-A (non-transformed epithelial cells); test: MTT cell viability, panel of cell lines; format: cell-based; conditions: Non-tumorogenic, 72 h
Protocol: (§1) This effect can be observed in Table 1, where sensitivity to RSM932A of non-transformed MCF-10A epithelial cells is compared to 12 different human-tumor-derived cells from different tissues, including breast, lung, colon and pancreatic tumor cell lines.
(§2) The experimental conditions were as follows: cells were seeded at 10,000 cells per well into 96-well plates (BD, Falcon, Bioscience, San Jose, Calif., USA). Exponentially growing cells for 24 hours were exposed to different concentrations (quadruplicates for each concentration) of the compound for 72 hours. The colorimetric assay MTT (3-(4,5-dimethylthiazol-2-yl)-2,5-diphenyltetrazolium bromide was used to assess cell viability. The reaction correlates with absorbance read at 595 nm in a VersaMax Microplate Reader (Molecular Devices, Sunnyvale, Calif., USA). The IC50 (50% inhibitory concentration of a substance) is quantified by plotting the log OD (optical density) versus log drug concentration. IC50: Concentration of the compound that causes 50% growth inhibition with respect to control cells without drug.

[2] = target: T1, choline kinase from Plasmodium falcifarum (Pf-ChoK) (Plasmodium falciparum, UniProt Q8IM71); test: Sensitivity of Plasmodium falcifarum choline kinase (expressed in E. coli); format: biochemical; conditions: read-out: IC50 (inhibition of Pf-ChoK)
T1 construct: made in house; host or cells: E. coli
T1 sequence (Q8IM71 entry or part of it): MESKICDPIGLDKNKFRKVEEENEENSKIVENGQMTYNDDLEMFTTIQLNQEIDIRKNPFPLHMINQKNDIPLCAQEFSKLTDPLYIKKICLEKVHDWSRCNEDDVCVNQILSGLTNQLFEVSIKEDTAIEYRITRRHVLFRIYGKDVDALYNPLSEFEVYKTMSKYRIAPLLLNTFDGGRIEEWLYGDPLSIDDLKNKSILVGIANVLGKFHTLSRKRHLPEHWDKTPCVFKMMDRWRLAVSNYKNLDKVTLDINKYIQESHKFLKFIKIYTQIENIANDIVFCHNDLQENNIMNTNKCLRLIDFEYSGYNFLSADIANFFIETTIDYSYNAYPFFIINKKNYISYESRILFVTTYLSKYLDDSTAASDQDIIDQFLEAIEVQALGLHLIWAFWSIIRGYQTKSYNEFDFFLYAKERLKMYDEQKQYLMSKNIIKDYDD
Protocol: The sensitivity of choline kinase of the parasite Plasmodium falcifarum (Pf) was also tested with choline kinase inhibitors. Choline kinase from Pf was expressed in E. coli (FIG. 3) and tested for activity (data not shown). Optimal conditions were established and the IC50 determined.

[3] = system: MDA.MB.231 (breast cancer cell line) xenograft; test: Antitumor activity in breast xenografts (MDA.MB.231); format: in vivo, Balb/c nude mice
Protocol: (§3) Six-week-old Balb/c nude mice (Charles River) were used. The research protocol was approved by the National Biotechnology Centre (CNB) Ethics Committee and animals were maintained in accordance to the Spanish Law guidelines (12 h light/dark cycle, and ad libitum access to food and autoclaved water). Mice were inoculated s.c. in both lower flanks with 1×10^6 of MDA.MB.231 (breast cancer cell line) cells resuspended in 100 μL of serum free DMEN (Invitrogen) media. MDA.MB.231 cells were passed at 80% to 90% confluence every 2 to 3 days in DMEN (Invitrogen) supplemented with 10% fetal bovine serum (FBS, Invitrogen), to ensure exponential growth before using them for the in vivo experiments.
(§4) Mice developing measurable subcutaneous tumors (˜0.1 cm^3) within 3 to 4 weeks were randomized to either treated or control groups (treated only with the drug vehicle). Tumor growth was monitored by measuring their size two to three times per week. Tumors were measured in two dimensions with digital calipers and tumor volume was estimated using the formula of a rational ellipse (D×d^2)/2, where D is the length of the long diameter and d is the short one. […]
Body weight of mice was assessed once per week and tumor volumes of the untreated and treated groups were compared and analyzed using the non parametric Mann-Whitney test. […]

H1299 = test: MTT cell viability, panel of cell lines; format: cell-based, human; conditions: H1299, Lung, 72 h
Protocol: as §1, §2

T47D = test: MTT cell viability, panel of cell lines; format: cell-based, human; conditions: Breast, 72 h
Protocol: as §1, §2

Mia.PaCa.2 = test: MTT cell viability, panel of cell lines; format: cell-based, human; conditions: Mia.PaCa.2, Pancreas, 72 h
Protocol: as §1, §2

MDA.MB.468 = test: MTT cell viability, panel of cell lines; format: cell-based, human; conditions: MDA.MB.468, Breast, 72 h
Protocol: as §1, §2

SkBr-3 = test: MTT cell viability, panel of cell lines; format: cell-based, human; conditions: SkBr-3, Breast, 72 h
Protocol: as §1, §2

MDA.MB.231 = test: MTT cell viability, panel of cell lines; format: cell-based, human; conditions: MDA.MB.231, Breast, 72 h
Protocol: as §1, §2

H510 = test: MTT cell viability, panel of cell lines; format: cell-based, human; conditions: H510, Lung, 72 h
Protocol: as §1, §2

HT-29 = test: MTT cell viability, panel of cell lines; format: cell-based, human; conditions: HT-29, Colon, 72 h
Protocol: as §1, §2

H460 = test: MTT cell viability, panel of cell lines; format: cell-based, human; conditions: H460, Lung, 72 h
Protocol: as §1, §2

SW620 = test: MTT cell viability, panel of cell lines; format: cell-based, human; conditions: SW620, Colon, 72 h
Protocol: as §1, §2

DLD-1 = test: MTT cell viability, panel of cell lines; format: cell-based, human; conditions: DLD-1, Colon, 72 h
Protocol: as §1, §2

HCT-116 = test: MTT cell viability, panel of cell lines; format: cell-based, human; conditions: HCT-116, Colon, 72 h
Protocol: as §1, §2

HT-29 cells = test: HT-29 cell proliferation assay (Crystal Violet); format: cell-based, human; conditions: six days of treatment
Protocol: The HT-29 cells were seeded in 24-well plates (35×10^3 cells/well) and were incubated for 24 hours. Then the cells were treated with different concentrations of ChoK inhibitors in the usual culture medium. Three days later, the wells were aspirated and both fresh medium and more amount of drug were added, and the cells were maintained for three more days. The quantification of the remaining cells in each well was carried out by means of the Crystal Violet method [Gillies, R. J., Didier, N., Denton, M. Anal. Biochem. 159, 109-113 (1986)], with some modifications [Hernández-Alcoceba, R., Saniger, L., Campos, J., Núñez, M. C., Khaless, F., Gallo, M. Á., Espinosa, A., Lacal, J. C. Oncogene, 15, 2289-2301 (1997)]. Briefly, the cells were washed with TD buffer and fixed with 1% glutaraldehyde for 15 minutes. After washing again with TD, the cell nuclei were coloured with 0.1% Crystal Violet for at least 30 minutes and washed three times with distilled water. The adsorbed colouring was resuspended in 10% acetic acid and the absorbance at 595 nm was determined in a spectrometer. […] This value determined by iterative curve adjustment. Two values are determined for each point of the curve, the experiment was repeated two or three times and the mean values were estimated. In the few cases in which the two values differed more than 50%, a third experiment was carried out to determine the real value. The IC50 value as a potency measurement is used to relate the biological activity of the compounds with their chemical structure.

[4] = system: H460 (human NSCLC cells) xenograft; test: Antitumor activity in lung xenografts (H460); format: in vivo, Balb/c nude mice
Protocol: as §3, with “H460 (human NSCLC cells)” for “MDA.MB.231 (breast cancer cell line)”, “RPMI” for “DMEN”, “H460” for “MDA.MB.231”, “in” for “them for”
as §4, with “(˜0.15-0.2” for “(˜0.1”, “2” for “3 to 4”
Body weight of mice was assessed once per week and tumor volumes between the untreated and treated groups were compared and analyzed using the non parametric Mann-Whitney test. […]

Question: `CN(c1ccc(Cl)cc1)c1cc[n+](Cc2ccc(-c3ccc(C[n+]4ccc(N(C)c5ccc(Cl)cc5)c5ccccc54)cc3)cc2)c2ccccc12.[Br-].[Br-]` [Compound 7, 1,1′-(biphenyl-4,4′-diylmethylene)bis[4-(4-chloro-N-methylanilino)quinolinium]dibromide] was tested. Which IC50 [1] did it give?
Answer: Its IC50 is 7100 nM.

Question: And the IC50 [2]?
Answer: The IC50 was 930 nM.

Question: And the “Loss Weight” value ([3]; MDA.MB.231 xenograft mice, 1st day vs last day of treatment (24 g to 22.2 g))?
Answer: Its value is 7.5%.

Question: And the “percentage of inhibition of tumor growth” value ([3]; MDA.MB.231 xenograft, 5 mg/kg i.p., three days per week for three weeks, after 20 days, relative to control mice)?
Answer: Its value is 54.5%.

Question: And the IC50 (H1299)?
Answer: The IC50 was 1900 nM.

Question: What about the IC50 (T47D) of the same compound?
Answer: The IC50 was 2250 nM.

Question: And the IC50 (Mia.PaCa.2)?
Answer: Its IC50 is 2300 nM.

Question: And the IC50 (MDA.MB.468)?
Answer: Its IC50 is 2400 nM.

Question: What about the IC50 (SkBr-3) of the same compound?
Answer: Its IC50 is 3100 nM.

Question: And the IC50 (MDA.MB.231)?
Answer: Its IC50 is 1300 nM.

Question: And the IC50 (H510)?
Answer: The IC50 was 1400 nM.

Question: What about the IC50 (HT-29) of the same compound?
Answer: Its IC50 is 1700 nM.

Question: And the IC50 (H460)?
Answer: Its IC50 is 1900 nM.

Question: And the IC50 (SW620)?
Answer: Its IC50 is 2100 nM.

Question: What about the IC50 (DLD-1) of the same compound?
Answer: The IC50 was 2100 nM.

Question: What about the IC50 (HCT-116) of the same compound?
Answer: The IC50 was 1800 nM.

Question: And the IC50 (HT-29 cells)?
Answer: Its IC50 is 1200 nM.

Question: What about the “Loss Weight” value ([4]; H460 xenograft mice, 1st day vs last day of treatment (23.2 g to 20.8 g)) of the same compound?
Answer: The value was 10.5%.

Question: What about the “percentage of inhibition of tumor growth” value ([4]; H460 xenograft, 6 mg/kg i.p., five days in a week plus a boost, after 22 days, relative to control mice) of the same compound?
Answer: The value was 64.5%.
